Results from BigSolDB 2.1.

c1ccc2ccccc2c1
Conditions	solubility (mole fraction)
in DMF, 278.05 K	0.162
in DMF, 283.05 K	0.185
in DMF, 288.15 K	0.215
in DMF, 292.75 K	0.244
in DMF, 298.05 K	0.281
in DMF, 303.25 K	0.307
in DMF, 307.95 K	0.354
in DMF, 313.15 K	0.406
in DMF, 318.15 K	0.465
in NMP, 278.18 K	0.269
in NMP, 283.25 K	0.289
in NMP, 288.17 K	0.307
in NMP, 293.2 K	0.336
in NMP, 298.16 K	0.379
in NMP, 303.21 K	0.41
in NMP, 308.17 K	0.438
in NMP, 313.16 K	0.486
in NMP, 318.21 K	0.535
in NMP, 323.27 K	0.577
in THF, 278.6 K	0.241
in THF, 284.35 K	0.273
in THF, 288.25 K	0.292
in THF, 293.25 K	0.324
in THF, 298 K	0.352
in THF, 303.2 K	0.385
in THF, 308.19 K	0.428
in THF, 313.25 K	0.469
in THF, 318.35 K	0.51
in THF, 323.2 K	0.566
in THF, 328.21 K	0.6
in THF, 333.22 K	0.629
in acetone, 278.15 K	0.124
in acetone, 283.15 K	0.143
in acetone, 288.05 K	0.171
in acetone, 293.25 K	0.194
in acetone, 298.35 K	0.226
in acetone, 303 K	0.268
in acetone, 308.1 K	0.307
in acetone, 313.05 K	0.361
in acetone, 318.15 K	0.417
in acetone, 323.05 K	0.477
in ethyl acetate, 278.2 K	0.174
in ethyl acetate, 283.17 K	0.191
in ethyl acetate, 288.21 K	0.217
in ethyl acetate, 293.19 K	0.233
in ethyl acetate, 298.25 K	0.276
in ethyl acetate, 303.2 K	0.314
in ethyl acetate, 308.21 K	0.357
in ethyl acetate, 313.23 K	0.406
in ethyl acetate, 318.17 K	0.465
in ethyl acetate, 323.21 K	0.526
in isobutyl acetate, 278.18 K	0.183
in isobutyl acetate, 283.2 K	0.205
in isobutyl acetate, 288.22 K	0.232
in isobutyl acetate, 293.23 K	0.259
in isobutyl acetate, 298.19 K	0.299
in isobutyl acetate, 303.23 K	0.335
in isobutyl acetate, 308.45 K	0.387
in isobutyl acetate, 313.2 K	0.433
in isobutyl acetate, 318.17 K	0.483
in isobutyl acetate, 323.21 K	0.539
in n-butyric acid, 278.17 K	0.0834
in n-butyric acid, 283.27 K	0.0952
in n-butyric acid, 288.45 K	0.113
in n-butyric acid, 293.2 K	0.129
in n-butyric acid, 298.26 K	0.154
in n-butyric acid, 303.22 K	0.179
in n-butyric acid, 308.2 K	0.215
in n-butyric acid, 313.3 K	0.253
in n-butyric acid, 318.19 K	0.292
in n-butyric acid, 323.28 K	0.34
